Data on eleven compounds can be found in ChEMBL document CHEMBL1821599 (J Med Chem, 2011).

Activity calls are given as the source filed them. The rule behind the calls is not given here. Where a SMILES comes first, the peptide text is derived from it. Bridges are numbered along the chain shown (N, C = ends). [ ]: non-standard residue; d: D form.

In experiment [1] the target is Somatostatin receptor type 1 (Homo sapiens, UniProt P30872). In words: Displacement of 125I-[LTT]-SRIF-28 from human sst1 receptor in CHO cells after 2 hrs by autoradiography. In kind it is cell-based.
Experiment [2] concerns the target Somatostatin receptor type 2 (Homo sapiens, UniProt P30874). In words: Displacement of 125I-[LTT]-SRIF-28 from human sst2 receptor in CCL39 cells after 2 hrs by autoradiography. In kind it is cell-based. On the technique in general: Loss of bound radioactivity is the signal in a displacement assay; it reports binding, not function.
Experiment [3] addresses T1, Somatostatin receptor type 3 (Homo sapiens, UniProt P32745). In words: Displacement of 125I-[LTT]-SRIF-28 from human sst3 receptor in CCL39 cells after 2 hrs by autoradiography. It counts as cell-based.
Experiment [4] deals with Somatostatin receptor type 4 (Homo sapiens, UniProt P31391). The experiment can be described thus: Displacement of 125I-[LTT]-SRIF-28 from human sst4 receptor in CCL39 cells after 2 hrs by autoradiography. In kind it is cell-based.
For experiment [5], the target named is Somatostatin receptor type 5 (Homo sapiens, UniProt P35346). The experiment can be described thus: Displacement of 125I-[LTT]-SRIF-28 from human sst5 receptor in HEK293 cells after 2 hrs by autoradiography. It counts as cell-based.
Experiment [6] concerns the target T1, Somatostatin receptor type 3. In words: Induction of sst3 receptor internalization in human HEK cells after 30 mins by immunofluorescence microscopy. To be noted: HEK293. In kind it is cell-based.
Experiment [7] shares this target. In words: Agonist activity at human sst3 receptor expressed in CCL39 cells after 5 hrs by luciferase reporter gene assay. It counts as functional, cell-based. In general terms: In a reporter assay the amount or activity of a reporter protein is the signal.
For experiment [8] the target is unchanged. In words: Partial agonist activity at human sst3 receptor expressed in CCL39 cells after 5 hrs by luciferase reporter gene assay. In kind it is functional, cell-based.
For experiment [9] the target is unchanged. The experiment can be described thus: Partial antagonist activity at human sst3 receptor expressed in CCL39 cells assessed as inhibition of somatostatin-induced luciferase reporter gene expression at 10 uM after 5 hrs. It counts as functional, cell-based.
Experiment [10] shares this target. In words: Induction of sst3 receptor internalization in human HEK cells at 10 uM after 30 mins by immunofluorescence microscopy. It counts as cell-based. To be noted: HEK293.
For experiment [11] the target is unchanged. The experiment can be described thus: Inhibition of somatostatin-induced sst3 receptor internalization in human HEK cells at 10 uM after 30 mins by immunofluorescence microscopy. In kind it is cell-based. The following applies: HEK293.

T1 sequence (P32745 whole entry): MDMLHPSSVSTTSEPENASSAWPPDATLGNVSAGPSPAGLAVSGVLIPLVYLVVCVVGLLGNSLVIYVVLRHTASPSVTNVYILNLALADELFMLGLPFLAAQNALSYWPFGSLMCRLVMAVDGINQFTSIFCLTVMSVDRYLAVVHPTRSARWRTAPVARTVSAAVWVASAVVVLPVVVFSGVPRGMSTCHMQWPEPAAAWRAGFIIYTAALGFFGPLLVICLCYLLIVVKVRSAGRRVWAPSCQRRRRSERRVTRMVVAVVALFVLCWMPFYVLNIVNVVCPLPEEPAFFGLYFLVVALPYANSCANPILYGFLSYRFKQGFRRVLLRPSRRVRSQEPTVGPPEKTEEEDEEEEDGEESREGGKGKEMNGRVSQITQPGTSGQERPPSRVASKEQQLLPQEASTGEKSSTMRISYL
Chain of Somatostatin receptor type 2 (P30874 whole entry): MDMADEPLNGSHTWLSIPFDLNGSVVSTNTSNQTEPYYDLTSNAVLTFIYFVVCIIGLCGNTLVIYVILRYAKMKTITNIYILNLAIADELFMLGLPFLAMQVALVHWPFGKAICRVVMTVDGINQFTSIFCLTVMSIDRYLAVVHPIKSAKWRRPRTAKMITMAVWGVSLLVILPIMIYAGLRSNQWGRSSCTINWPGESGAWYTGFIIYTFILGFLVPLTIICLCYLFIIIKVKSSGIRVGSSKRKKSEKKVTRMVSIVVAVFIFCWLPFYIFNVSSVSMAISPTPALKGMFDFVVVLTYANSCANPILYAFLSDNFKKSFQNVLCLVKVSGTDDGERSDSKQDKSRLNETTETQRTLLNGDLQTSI
Chain of Somatostatin receptor type 5 (P35346 whole entry): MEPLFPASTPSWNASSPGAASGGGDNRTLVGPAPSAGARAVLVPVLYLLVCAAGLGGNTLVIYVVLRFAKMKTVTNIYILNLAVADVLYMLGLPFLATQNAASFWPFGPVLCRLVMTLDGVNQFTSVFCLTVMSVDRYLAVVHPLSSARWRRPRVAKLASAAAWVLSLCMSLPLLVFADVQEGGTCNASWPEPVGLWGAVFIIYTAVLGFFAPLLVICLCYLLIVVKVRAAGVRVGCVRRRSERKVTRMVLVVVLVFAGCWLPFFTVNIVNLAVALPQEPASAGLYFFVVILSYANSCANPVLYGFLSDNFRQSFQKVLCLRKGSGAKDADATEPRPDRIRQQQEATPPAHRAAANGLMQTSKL
Chain of Somatostatin receptor type 1 (P30872 whole entry): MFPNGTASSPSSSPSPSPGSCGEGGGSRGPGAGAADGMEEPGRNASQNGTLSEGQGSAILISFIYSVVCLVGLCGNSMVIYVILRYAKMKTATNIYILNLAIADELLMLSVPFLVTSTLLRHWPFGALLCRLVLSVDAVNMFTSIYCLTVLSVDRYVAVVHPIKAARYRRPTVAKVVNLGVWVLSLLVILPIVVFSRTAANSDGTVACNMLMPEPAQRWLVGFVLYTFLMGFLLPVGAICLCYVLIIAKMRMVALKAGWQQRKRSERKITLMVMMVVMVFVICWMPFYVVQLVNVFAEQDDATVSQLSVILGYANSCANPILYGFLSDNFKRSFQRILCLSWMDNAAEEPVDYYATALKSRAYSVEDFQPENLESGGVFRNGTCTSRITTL
Chain of Somatostatin receptor type 4 (P31391 whole entry): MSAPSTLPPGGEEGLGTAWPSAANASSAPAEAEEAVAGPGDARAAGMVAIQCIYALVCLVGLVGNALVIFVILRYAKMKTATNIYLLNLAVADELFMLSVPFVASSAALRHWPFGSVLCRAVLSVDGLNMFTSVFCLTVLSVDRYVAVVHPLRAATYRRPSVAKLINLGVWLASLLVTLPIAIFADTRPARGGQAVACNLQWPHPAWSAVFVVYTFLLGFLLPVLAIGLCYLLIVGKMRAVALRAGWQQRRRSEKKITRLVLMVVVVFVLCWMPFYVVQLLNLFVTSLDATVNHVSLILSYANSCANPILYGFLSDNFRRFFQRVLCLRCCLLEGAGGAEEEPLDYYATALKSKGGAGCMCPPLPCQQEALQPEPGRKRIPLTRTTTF

Take `C[C@H](N)C(=O)NCC(=O)N[C@H]1CSSC[C@@H](C(=O)O)NC(=O)[C@H](CO)NC(=O)[C@H]([C@@H](C)O)NC(=O)[C@H](Cc2ccccc2)NC(=O)[C@H]([C@@H](C)O)NC(=O)[C@H](CCCCN)NC(=O)[C@@H](Cc2ccc3ccccc3c2)NC(=O)[C@H](Cc2ccccc2)NC(=O)[C@H](Cc2ccccc2)NC(=O)[C@H](CC(N)=O)NC(=O)[C@H](CCCCN)NC1=O`: the IC50 was determined as 4.1 nM in experiment [1]; 1.6 nM in experiment [2]; 1 nM in [3]; 12 nM in experiment [4]; 2.4 nM in experiment [5]. Further, the result in [6] was Active. Further, a half-maximal effect in experiment [7] (EC50) was put at 0.23 nM.
As for `C[C@H](N)C(=O)NCC(=O)N[C@H]1CSSC[C@@H](C(=O)O)NC(=O)[C@H](CO)NC(=O)[C@H]([C@@H](C)O)NC(=O)[C@H](Cc2ccccc2)NC(=O)[C@H]([C@@H](C)O)NC(=O)[C@H](CCCCN)NC(=O)[C@@H](Cc2cn(Cc3ccccc3)cn2)NC(=O)[C@H](Cc2ccccc2)NC(=O)[C@H](Cc2ccccc2)NC(=O)[C@H](CC(N)=O)NC(=O)[C@H](CCCCN)NC1=O`, the IC50 was more than 1000 nM in [1]; 106 nM in experiment [2]; 15 nM in experiment [3]; more than 1000 nM in experiment [4]; more than 1000 nM in [5]. Also, the outcome in [6] and in [9] was Active. For the same compound, the midpoint of the response in experiment [8], the EC50, lay at 41 nM.
With `C[C@H](N)C(=O)NCC(=O)N[C@H]1CSSC[C@@H](C(=O)O)NC(=O)[C@H](CO)NC(=O)[C@H]([C@@H](C)O)NC(=O)[C@H](Cc2ccccc2)NC(=O)[C@H]([C@@H](C)O)NC(=O)[C@H](CCCCN)NC(=O)[C@H](Cc2ccc(O)cc2)NC(=O)[C@H](Cc2ccccc2)NC(=O)[C@H](Cc2ccccc2)NC(=O)[C@H](CC(N)=O)NC(=O)[C@H](CCCCN)NC1=O`, the 50% inhibitory concentration (IC50) stood at 138 nM in [1]; 35 nM in experiment [2]; 13 nM in [3]; 25 nM in experiment [4]; 556 nM in experiment [5]. In [6], the outcome was Active. The compound further had an EC50 in experiment [7] of 15.7 nM.
On to `C[C@H](N)C(=O)NCC(=O)N[C@H]1CSSC[C@@H](C(=O)O)NC(=O)[C@H](CO)NC(=O)[C@H]([C@@H](C)O)NC(=O)[C@H](Cc2ccccc2)NC(=O)[C@H]([C@@H](C)O)NC(=O)[C@H](CCCCN)NC(=O)[C@H](Cc2ccc3ccccc3c2)NC(=O)[C@H](Cc2ccccc2)NC(=O)[C@H](Cc2ccccc2)NC(=O)[C@H](CC(N)=O)NC(=O)[C@H](CCCCN)NC1=O`, for which the concentration for half-maximal inhibition (IC50) in [1] came to 2.7 nM; in experiment [2] it was 15 nM; in experiment [3], 1.5 nM; in experiment [4], 12 nM; in experiment [5], 69 nM. Moreover, the outcome in experiment [6] was Active. This compound also registered an EC50 in [7] of 0.35 nM.
As to `C[C@@H](O)[C@@H]1NC(=O)[C@H](CCCCN)NC(=O)[C@@H](Cc2cn(Cc3ccccc3)cn2)NC(=O)[C@H](Cc2ccccc2)NC(=O)[C@H](Cc2ccccc2)NC(=O)[C@@H](N)CSSC[C@@H](C(=O)O)NC(=O)[C@H](Cc2ccccc2)NC1=O`, the IC50 in [1] is more than 1000 nM; in experiment [2] it was more than 1000 nM; in experiment [3], 75 nM; in [4], 590 nM; in experiment [5], more than 1000 nM. In addition, the result in [6] and in experiment [10] was inactive. The compound also gave an EC50 in experiment [8] of 299 nM. In addition, the result in experiment [11] and in [9] was Active.
The compound `C[C@@H](O)[C@@H]1NC(=O)[C@H](CCCCN)NC(=O)[C@@H](Cc2c[nH]c3ccccc23)NC(=O)[C@H](Cc2ccccc2)NC(=O)[C@H](Cc2ccccc2)NC(=O)[C@@H](N)CSSC[C@@H](C(=O)O)NC(=O)[C@H](Cc2ccccc2)NC1=O` (H-CFF[dW]KTFC-OH; disulfide 1-8) returned a concentration for half-maximal inhibition (IC50) in experiment [5] of 2.6 nM. Further, the result in experiment [6] was Active. The compound also displayed a concentration for a half-maximal effect (EC50) in experiment [7] of 3.33 nM.
As to `C[C@H](N)C(=O)NCC(=O)N[C@H]1CSSC[C@@H](C(=O)O)NC(=O)[C@H](CO)NC(=O)[C@H]([C@@H](C)O)NC(=O)[C@H](Cc2ccccc2)NC(=O)[C@H]([C@@H](C)O)NC(=O)[C@H](CCCCN)NC(=O)[C@H](Cc2cn(Cc3ccccc3)cn2)NC(=O)[C@H](Cc2ccccc2)NC(=O)[C@H](Cc2ccccc2)NC(=O)[C@H](CC(N)=O)NC(=O)[C@H](CCCCN)NC1=O`, the IC50 in [1] is more than 1000 nM; in [2] it was more than 1000 nM; in [3], 131 nM; in experiment [4] it was more than 1000 nM; in [5], more than 1000 nM. In addition, the result in experiment [6] and in [9] was Active. For the same compound, the 50% effective concentration (EC50) in [8] turned out to be 315 nM.
Take `C[C@@H](O)[C@@H]1NC(=O)[C@H](CCCCN)NC(=O)[C@@H](Cc2ccc3ccccc3c2)NC(=O)[C@H](Cc2ccccc2)NC(=O)[C@H](Cc2ccccc2)NC(=O)[C@@H](N)CSSC[C@@H](C(=O)O)NC(=O)[C@H](Cc2ccccc2)NC1=O`: the IC50 in [1] stood at 607 nM; in [2] it was 173 nM; in [3] it was 6.7 nM; in experiment [4] it was 41 nM; in experiment [5], 6 nM. The result in experiment [6] was Active. Also, the EC50 in [7] was 0.53 nM.
Take `C[C@H](N)C(=O)NCC(=O)N[C@H]1CSSC[C@@H](C(=O)O)NC(=O)[C@H](CO)NC(=O)[C@H]([C@@H](C)O)NC(=O)[C@H](Cc2ccccc2)NC(=O)[C@H]([C@@H](C)O)NC(=O)[C@H](CCCCN)NC(=O)[C@@H](Cc2ccc(O)cc2)NC(=O)[C@H](Cc2ccccc2)NC(=O)[C@H](Cc2ccccc2)NC(=O)[C@H](CC(N)=O)NC(=O)[C@H](CCCCN)NC1=O`: the half-inhibitory concentration (IC50) in [1] came out at 140 nM; in experiment [2], 4.1 nM; in experiment [3] it was 2 nM; in experiment [4], 16 nM; in experiment [5], 41 nM. Further, the outcome in experiment [6] was Active. In experiment [7], this compound registered an EC50 of 0.87 nM.
Turning to `C[C@@H](O)[C@@H]1NC(=O)[C@H](CCCCN)NC(=O)[C@H](Cc2cn(Cc3ccccc3)cn2)NC(=O)[C@H](Cc2ccccc2)NC(=O)[C@H](Cc2ccccc2)NC(=O)[C@@H](N)CSSC[C@@H](C(=O)O)NC(=O)[C@H](Cc2ccccc2)NC1=O`, the 50% inhibitory concentration (IC50) was more than 1000 nM in [1]; more than 1000 nM in experiment [2]; 164 nM in [3]; more than 1000 nM in experiment [4]; more than 1000 nM in experiment [5]. The outcome in [6] and in experiment [10] was inactive. In experiment [8], this compound displayed an EC50 of 164 nM. Moreover, the result in experiment [11] and in [9] was Active.
For `C[C@@H](O)[C@@H]1NC(=O)[C@H](CCCCN)NC(=O)[C@H](Cc2c[nH]c3ccccc23)NC(=O)[C@H](Cc2ccccc2)NC(=O)[C@H](Cc2ccccc2)NC(=O)[C@@H](N)CSSC[C@@H](C(=O)O)NC(=O)[C@H](Cc2ccccc2)NC1=O` (H-CFFWKTFC-OH; disulfide 1-8), the half-inhibitory concentration (IC50) in experiment [5] is 16 nM. Besides, the result in [6] was Active. The compound further gave an EC50 in experiment [8] of 4.7 nM.

As a reminder, the IC50 is the midpoint of a concentration-inhibition curve. For orientation: EC50 means the midpoint of the concentration-response curve.
